Assay results published in US20130150399A1, “INHIBITORS OF THE UNFOLDED PROTEIN RESPONSE AND METHODS FOR THEIR USE” (The Board of Trustees of the Leland Stanford Junior …, priority 2006, published 2013).

Key:
HT1080 cells = assay: TUNEL staining, HT1080 cells under hypoxia; type: cell-based, human; conditions: 2.5 μM; 48 hours of hypoxia
Experimental: A. Effect of irestatin 9389 on PERK and ATF6 pathways. HT1080 cells were treated with vehicle alone (lanes 1-4) or 2.5 μM irestatin 9389 (lanes 5-8) and cultured under aerobic conditions for 18 hours (N) or shifted to hypoxia for the indicated times. Protein lysates were analyzed by Western blot analysis using antisera specific for ATF6 (top), CHOP/GADD153 (middle) or actin (bottom). Arrow indicates the cleaved, transcriptionally active form of ATF6. B. Cleavage of caspase-3 in irestatin-treated cells under hypoxia. HT1080 cells were cultured in normoxia (N) or under hypoxia for 36 hours (H 36) in absence or presence of irestatin 9389 (2.5 μM). Arrows indicate proteolytically cleaved caspase-3. C. Colony formation assay. HT1080 cells were treated as in B under normoxia (N) or hypoxia for 48 hours (H 48). Cells were harvested, counted, and allowed to grow under normal culture conditions for 11-12 days. Colonies were visualized with crystal violet staining. D. Quantification of clonogenic survival assay. Values represent the mean+/−SEM from at least 4 independent experiments. E. TUNEL staining of cells treated as in C. F. Quantification of TUNEL-positive cells. Values represent the mean+/− SEM from at least 3 experiments. […] Cells were harvested at the indicated times and counted by hemocytometer. Values represent the mean calculated from triplicate experiments+/−SEM. […]

[1] = test system: PANC1 pancreatic adenocarcinoma cells; assay: PANC1 tumor growth in vivo; parameters: species or system nude mice; conditions: 60 mg/kg ip bolus every 48 hours, 5 doses
Experimental: Dose: 60 mg/kg ip bolus injection every 48 hours. 5 total doses. 5-7 tumors per group. PANC1 pancreatic adenocarcinoma cell line.
PANC1 pancreatic adenocarcinoma cells were implanted subcutaneously into nude mice. Mice were then given a bolus injection of one of the inventive irestatins (1401, 9337, 3611 or 9389) at a dose of 60 mg/kg every 48 hours for a total of 5 doses, with 5-7 tumors being treated per group.

Grp78 = assay: Western immunoblot of Grp78, HT1080 cells; type: cell-based, human; conditions: irestatin 9389 2.5 μM, 16 hours (also 24 or 36 hours)
Experimental: Cells (2×10^6) were cultured in 10-cm dishes, collected using a cell scraper at 4° C., and lysed by addition of 150 μl cell lysis buffer [50 mM Tris pH 7.4, 150 mM NaCl, 10% glycerol, 0.5% Triton X-100. 0.5% NP-40, 2 mM Na3VO4, 20 mM beta-glycerophosphate, 10 mM NaF, 1 mM DTT, 1 mM PMSF). Lysates were centrifuged for 5 min at 10,000×g, and proteins (˜40 μg) were resolved by SDS-PAGE followed by semi-dry transfer to nitrocellulose membranes. Membranes were blocked in TBS-5% milk supplemented with 0.1% Tween-20. The blots were then probed overnight with relevant antibodies, washed, and incubated for 2 hours with species-specific secondary antibodies conjugated to horseradish peroxidase. After washing in block solution, immunoreactive material was detected by enhanced chemiluminescence (SuperSignal West Dura Extended, Pierce, Inc., Rockville, Ill.).
HT1080 cells were exposed to DMSO vehicle (lane 1), irestatin 9389 (2.5 μM; lane 2) for 16 hours or Tm (5 μg/ml; lane 3) for 8 hours. Following treatments, cells were harvested, lysed, and analyzed by immunoblotting using anti-Grp78 antibody (top) or anti-actin (bottom) as a loading control. […] Cell lysates were analyzed by Western immunoblotting using anti-IRE1α (bottom) or anti-phospho-IRE1α antibodies (top). […] Lysates were analyzed by Western blot using antisera specific for phospho-JNK1 (top) or total JNK1 (bottom). […]

`Cc1csc(NC(=O)CSc2nc3c(c(C(F)(F)F)c2C#N)CCC3)n1` [Compound 9389] was tested. Which TUNEL-positive cells (HT1080 cells) did it give?
The TUNEL-positive cells was 35%.

And the tumor growth [1]?
The tumor growth was “significant tumor growth was observed in untreated mice, but not in mice treated with the irestatins”.

And the Grp78 levels (Grp78)?
The Grp78 levels was “no effect on Grp78 levels”.
